ChEMBL document CHEMBL1128646, “The effect of Pyrrolo[3,4-c]carbazole derivatives on spinal cord ChAT activity” (Bioorg Med Chem Lett, 1995)
Blank lines part the entries; values can stand above or below the molecule they belong to. The source made the active and inactive calls. The calls are words filed in the database; no cut-off is given here.

Key:
[1] = biological target: T1, Choline O-acetyltransferase (Rattus norvegicus) (UniProt P32738); experiment: Compound was tested in vitro for choline acetyltransferase (ChAT) activity (maximal ChAT stimulation) in embryonic rat spinal cord cultures at a concentration of 10 uM; inactive
T1 sequence (whole entry): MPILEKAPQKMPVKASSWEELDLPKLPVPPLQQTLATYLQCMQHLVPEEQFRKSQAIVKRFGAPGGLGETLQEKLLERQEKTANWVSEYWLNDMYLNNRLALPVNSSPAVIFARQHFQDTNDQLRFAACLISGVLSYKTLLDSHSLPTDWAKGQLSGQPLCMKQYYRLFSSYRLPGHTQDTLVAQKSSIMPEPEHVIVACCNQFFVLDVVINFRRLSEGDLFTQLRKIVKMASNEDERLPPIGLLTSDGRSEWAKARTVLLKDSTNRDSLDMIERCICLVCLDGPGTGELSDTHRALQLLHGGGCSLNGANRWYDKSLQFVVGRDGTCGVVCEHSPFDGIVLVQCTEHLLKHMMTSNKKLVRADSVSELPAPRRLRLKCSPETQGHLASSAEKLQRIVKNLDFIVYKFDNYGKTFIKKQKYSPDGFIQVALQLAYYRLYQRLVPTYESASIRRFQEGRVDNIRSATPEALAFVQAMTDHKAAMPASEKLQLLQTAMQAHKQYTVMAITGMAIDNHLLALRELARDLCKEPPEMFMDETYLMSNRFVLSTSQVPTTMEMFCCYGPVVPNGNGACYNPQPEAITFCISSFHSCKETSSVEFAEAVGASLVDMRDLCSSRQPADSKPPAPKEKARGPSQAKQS

[2] = biological target: T1, Choline O-acetyltransferase (Rattus norvegicus); experiment: Compound was tested in vitro for choline acetyltransferase (ChAT) activity (maximal ChAT stimulation) in embryonic rat spinal cord cultures at a concentration of 1 uM; type: tissue-based
[3] = biological target: T1, Choline O-acetyltransferase (Rattus norvegicus); experiment: Compound was tested in vitro for choline acetyltransferase (ChAT) activity (maximal ChAT stimulation) in embryonic rat spinal cord cultures at a concentration of 10 uM; type: tissue-based
[4] = biological target: T1, Choline O-acetyltransferase (Rattus norvegicus); experiment: Compound was tested in vitro for choline acetyltransferase (ChAT) activity (maximal ChAT stimulation) in embryonic rat spinal cord cultures at a concentration of 10 uM; Inactive; type: tissue-based
[5] = biological target: T1, Choline O-acetyltransferase (Rattus norvegicus); experiment: Compound was tested in vitro for choline acetyltransferase (ChAT) activity (maximal ChAT stimulation) in embryonic rat spinal cord cultures at a concentration of 0.300 uM; type: tissue-based

SMILES: CC(C)(C)OC(=O)/C=C/c1ccc2[nH]c3cc(-c4ccccc4)c4c(c3c2c1)C(=O)NC4
Control [1]: inactive

SMILES: CN1Cc2c(-c3ccccc3)cc3c(c2C1=O)c1ccccc1n3C
Control [4]: inactive

SMILES: O=C1NCc2c1c1c3ccccc3[nH]c1c1[nH]c3ccccc3c21
Control [2]: 162%

SMILES: COC(=O)[C@]1(O)C[C@@H]2O[C@@]1(C)n1c3ccccc3c3c4c(c5c6ccccc6n2c5c31)C(=O)NC4
Control [5]: 186%

Continued, values first:

Control [2]: 146%
SMILES: O=C1NCc2c(-c3ccccc3)cc3[nH]c4ccc(Br)cc4c3c21

Control [3]: 159%
SMILES: Cn1c2ccccc2c2c3c(c(-c4ccccc4)cc21)CNC3=O

Control [3]: 167%
SMILES: O=C1NCc2c(-c3ccccc3)cc3[nH]c4ccccc4c3c21

Control [1]: inactive
SMILES: O=C1NCc2c1c(-c1ccccc1)cc1[nH]c3ccccc3c21

Control [1]: inactive
SMILES: O=C1NCc2c(-c3ccccc3)cc3[nH]c4ccc(/C=C/c5ccccc5)cc4c3c21
